Data taken from patent US8338565B2, “Macrocyclic compounds for inhibition of tumor necrosis factor alpha” (Ensemble Therapeutics Corporation, priority 2008, dated 2012).
Numbered stars: 1 amine (or outer) side, 2 acyl side, 3 side chain; on linkers, the order of the positions; unused ones are H or OH. Bridge positions count the residues as written; N and C are the ends. Square brackets hold non-standard residues; d marks the D form. Peptide text beside a SMILES is read from it. * marks the point of attachment. Tartaroyl(2R,3R-(OAc)2) = CC(=O)O[C@@H](C(=O)[*:1])[C@@H](OC(C)=O)C(=O)[*:2]; Phe(4-CF3) = N[C@@H](Cc1ccc(C(F)(F)F)cc1)C(=O)O; dPhe(3,4-F2) = N[C@H](Cc1ccc(F)c(F)c1)C(=O)O; dPhe(3-CN) = N#Cc1cccc(C[C@@H](N)C(=O)O)c1; dPhe(3-OMe) = COc1cccc(C[C@@H](N)C(=O)O)c1; dPhe(4-CN) = N#Cc1ccc(C[C@@H](N)C(=O)O)cc1; Bip = N[C@@H](Cc1ccc(-c2ccccc2)cc1)C(=O)O; dPhe(4-NH2) = Nc1ccc(C[C@@H](N)C(=O)O)cc1; Phe(4-Br) = N[C@@H](Cc1ccc(Br)cc1)C(=O)O; dPhe(2-CN) = N#Cc1ccccc1C[C@@H](N)C(=O)O; dPhe(3-Cl) = N[C@H](Cc1cccc(Cl)c1)C(=O)O; Phe(4-NH2) = Nc1ccc(C[C@H](N)C(=O)O)cc1; dAla(2-furyl) = N[C@H](Cc1ccco1)C(=O)O; dPhe(2-Cl) = N[C@H](Cc1ccccc1Cl)C(=O)O; dPhe(4-F) = N[C@H](Cc1ccc(F)cc1)C(=O)O; d1Nal = N[C@H](Cc1cccc2ccccc12)C(=O)O; d2Nal = N[C@H](Cc1ccc2ccccc2c1)C(=O)O; d(hhPhe) = N[C@H](CCCc1ccccc1)C(=O)O; d3Pal = N[C@H](Cc1cccnc1)C(=O)O; d4Pal = N[C@H](Cc1ccncc1)C(=O)O; d2Thi = N[C@H](Cc1cccs1)C(=O)O; d3Thi = N[C@H](Cc1ccsc1)C(=O)O; dCha = N[C@H](CC1CCCCC1)C(=O)O; Suc = O=C(CCC(=O)[*:2])[*:1]; Bn = c1ccc(C*)cc1

These compounds were tested against T1, TNFα / TNFα receptor (TNFα R1/Fc) (Homo sapiens, UniProt P01375) (assay: Inhibition of binding of TNFα to the TNFα receptor (plate ELISA competition)). Settings: Table 2; read-out: Activity (IC50, inhibition of TNFα binding to TNFα R1/Fc).
T1 construct: purchased R&D Systems
T1 sequence (P01375 77-233 limits assumed, species assumed): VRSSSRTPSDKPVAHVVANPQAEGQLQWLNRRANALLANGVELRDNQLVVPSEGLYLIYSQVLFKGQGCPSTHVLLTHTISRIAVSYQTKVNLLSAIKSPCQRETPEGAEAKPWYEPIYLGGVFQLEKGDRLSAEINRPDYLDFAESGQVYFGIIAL
Summary of the method: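 Plates were coated with TNFα at 15 nM. Test compound and 8.33 nM receptor-Fc (PBST, 2% DMSO) were first mixed in solution for 30 min at room temperature, then transferred to the plates for another 30 min. Competition was read by absorbance at 450 nm after HRP anti-human IgG Fc detection with TMB.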

Structure (SMILES)	IC50 [µM]
O=C1CCC(=O)N[C@H](Cc2ccc(O)cc2)C(=O)N[C@@H](Cc2ccc(-c3ccccc3)cc2)C(=O)N[C@H](Cc2ccccc2)C(=O)N[C@H](C(=O)O)Cc2ccc(cc2)N1 [Compound 121] ([dY][Bip][dF][Phe(4-NH2)]-OH; linker N-4 via Suc)	> 100
O=C1CCC(=O)N[C@H](Cc2ccsc2)C(=O)N[C@@H](Cc2ccc(-c3ccccc3)cc2)C(=O)N[C@H](Cc2ccccc2)C(=O)N[C@H](C(=O)O)Cc2ccc(cc2)N1 [Compound 122] ([d3Thi][Bip][dF][Phe(4-NH2)]-OH; linker N-4 via Suc)	30 to 100
O=C1CCC(=O)N[C@H](Cc2ccco2)C(=O)N[C@@H](Cc2ccc(-c3ccccc3)cc2)C(=O)N[C@H](Cc2ccccc2)C(=O)N[C@H](C(=O)O)Cc2ccc(cc2)N1 [Compound 123] ([dAla(2-furyl)][Bip][dF][Phe(4-NH2)]-OH; linker N-4 via Suc)	30 to 100
O=C1CCC(=O)N[C@H](CC2CCCCC2)C(=O)N[C@@H](Cc2ccc(-c3ccccc3)cc2)C(=O)N[C@H](Cc2ccccc2)C(=O)N[C@H](C(=O)O)Cc2ccc(cc2)N1 [Compound 124] ([dCha][Bip][dF][Phe(4-NH2)]-OH; linker N-4 via Suc)	> 100
O=C1CCC(=O)N[C@H](Cc2c[nH]c3ccccc23)C(=O)N[C@@H](Cc2ccc(-c3ccccc3)cc2)C(=O)N[C@H](Cc2ccccc2)C(=O)N[C@H](C(=O)O)Cc2ccc(cc2)N1 [Compound 125] ([dW][Bip][dF][Phe(4-NH2)]-OH; linker N-4 via Suc)	> 100
O=C1CCC(=O)N[C@H](Cc2cccnc2)C(=O)N[C@@H](Cc2ccc(-c3ccccc3)cc2)C(=O)N[C@H](Cc2ccccc2)C(=O)N[C@H](C(=O)O)Cc2ccc(cc2)N1 [Compound 126] ([d3Pal][Bip][dF][Phe(4-NH2)]-OH; linker N-4 via Suc)	> 100
O=C1CCC(=O)N[C@H](Cc2ccncc2)C(=O)N[C@@H](Cc2ccc(-c3ccccc3)cc2)C(=O)N[C@H](Cc2ccccc2)C(=O)N[C@H](C(=O)O)Cc2ccc(cc2)N1 [Compound 127] ([d4Pal][Bip][dF][Phe(4-NH2)]-OH; linker N-4 via Suc)	> 100
O=C1CCC(=O)N[C@H](Cc2ccccc2)C(=O)N[C@@H](Cc2ccc(-c3ccccc3)cc2)C(=O)N[C@H](Cc2ccccc2)C(=O)N[C@H](C(=O)O)Cc2ccc(cc2)N1 [Compound 128] ([dF][Bip][dF][Phe(4-NH2)]-OH; linker N-4 via Suc)	30 to 100
N#Cc1ccccc1C[C@H]1NC(=O)CCC(=O)Nc2ccc(cc2)C[C@@H](C(=O)O)NC(=O)[C@@H](Cc2ccccc2)NC(=O)[C@H](Cc2ccc(C(F)(F)F)cc2)NC1=O [Compound 129] ([dPhe(2-CN)][Phe(4-CF3)][dF][Phe(4-NH2)]-OH; linker N-4 via Suc)	30 to 100
N#Cc1cccc(C[C@H]2NC(=O)CCC(=O)Nc3ccc(cc3)C[C@@H](C(=O)O)NC(=O)[C@@H](Cc3ccccc3)NC(=O)[C@H](Cc3ccc(C(F)(F)F)cc3)NC2=O)c1 [Compound 130] ([dPhe(3-CN)][Phe(4-CF3)][dF][Phe(4-NH2)]-OH; linker N-4 via Suc)	10 to 30
N#Cc1ccc(C[C@H]2NC(=O)CCC(=O)Nc3ccc(cc3)C[C@@H](C(=O)O)NC(=O)[C@@H](Cc3ccccc3)NC(=O)[C@H](Cc3ccc(C(F)(F)F)cc3)NC2=O)cc1 [Compound 131] ([dPhe(4-CN)][Phe(4-CF3)][dF][Phe(4-NH2)]-OH; linker N-4 via Suc)	30 to 100
O=C1CCC(=O)N[C@H](Cc2ccccc2Cl)C(=O)N[C@@H](Cc2ccc(C(F)(F)F)cc2)C(=O)N[C@H](Cc2ccccc2)C(=O)N[C@H](C(=O)O)Cc2ccc(cc2)N1 [Compound 132] ([dPhe(2-Cl)][Phe(4-CF3)][dF][Phe(4-NH2)]-OH; linker N-4 via Suc)	30 to 100
O=C1CCC(=O)N[C@H](Cc2cccc(Cl)c2)C(=O)N[C@@H](Cc2ccc(C(F)(F)F)cc2)C(=O)N[C@H](Cc2ccccc2)C(=O)N[C@H](C(=O)O)Cc2ccc(cc2)N1 [Compound 133] ([dPhe(3-Cl)][Phe(4-CF3)][dF][Phe(4-NH2)]-OH; linker N-4 via Suc)	30 to 100
O=C1CCC(=O)N[C@H](Cc2ccc(F)cc2)C(=O)N[C@@H](Cc2ccc(C(F)(F)F)cc2)C(=O)N[C@H](Cc2ccccc2)C(=O)N[C@H](C(=O)O)Cc2ccc(cc2)N1 [Compound 134] ([dPhe(4-F)][Phe(4-CF3)][dF][Phe(4-NH2)]-OH; linker N-4 via Suc)	> 100
O=C1CCC(=O)N[C@H](Cc2ccc(F)c(F)c2)C(=O)N[C@@H](Cc2ccc(C(F)(F)F)cc2)C(=O)N[C@H](Cc2ccccc2)C(=O)N[C@H](C(=O)O)Cc2ccc(cc2)N1 [Compound 135] ([dPhe(3,4-F2)][Phe(4-CF3)][dF][Phe(4-NH2)]-OH; linker N-4 via Suc)	30 to 100
O=C1CCC(=O)N[C@H](CCCc2ccccc2)C(=O)N[C@@H](Cc2ccc(C(F)(F)F)cc2)C(=O)N[C@H](Cc2ccccc2)C(=O)N[C@H](C(=O)O)Cc2ccc(cc2)N1 [Compound 136] ([d(hhPhe)][Phe(4-CF3)][dF][Phe(4-NH2)]-OH; linker N-4 via Suc)	30 to 100
O=C1CCC(=O)N[C@H](COCc2ccccc2)C(=O)N[C@@H](Cc2ccc(C(F)(F)F)cc2)C(=O)N[C@H](Cc2ccccc2)C(=O)N[C@H](C(=O)O)Cc2ccc(cc2)N1 [Compound 137] ([dS](Bn)[Phe(4-CF3)][dF][Phe(4-NH2)]-OH; linker N-4 via Suc)	30 to 100

Structure (SMILES)	IC50 [µM]
COc1cccc(C[C@H]2NC(=O)CCC(=O)Nc3ccc(cc3)C[C@@H](C(=O)O)NC(=O)[C@@H](Cc3ccccc3)NC(=O)[C@H](Cc3ccc(C(F)(F)F)cc3)NC2=O)c1 [Compound 138] ([dPhe(3-OMe)][Phe(4-CF3)][dF][Phe(4-NH2)]-OH; linker N-4 via Suc)	> 100
N=C(N)NCCC[C@H]1NC(=O)CCC(=O)Nc2ccc(cc2)C[C@@H](C(=O)O)NC(=O)[C@@H](Cc2ccccc2)NC(=O)[C@H](Cc2ccc(C(F)(F)F)cc2)NC1=O [Compound 141] ([dR][Phe(4-CF3)][dF][Phe(4-NH2)]-OH; linker N-4 via Suc)	> 100
O=C1CCC(=O)N[C@H](Cc2cccc3ccccc23)C(=O)N[C@@H](Cc2ccc(C(F)(F)F)cc2)C(=O)N[C@H](Cc2ccccc2)C(=O)N[C@H](C(=O)O)Cc2ccc(cc2)N1 [Compound 142] ([d1Nal][Phe(4-CF3)][dF][Phe(4-NH2)]-OH; linker N-4 via Suc)	30 to 100
O=C1CCC(=O)N[C@H](Cc2ccc3ccccc3c2)C(=O)N[C@@H](Cc2ccc(C(F)(F)F)cc2)C(=O)N[C@H](Cc2ccccc2)C(=O)N[C@H](C(=O)O)Cc2ccc(cc2)N1 [Compound 143] ([d2Nal][Phe(4-CF3)][dF][Phe(4-NH2)]-OH; linker N-4 via Suc)	> 100
O=C1COc2ccc(cc2)C[C@@H](C(=O)O)NC(=O)[C@@H](CCc2ccccc2)NC(=O)[C@H](Cc2ccc(-c3ccccc3)cc2)NC(=O)[C@@H](CCc2ccccc2)N1 [Compound 144]	10 to 30
O=C1COc2ccc(cc2)C[C@@H](C(=O)O)NC(=O)[C@@H](CCc2ccccc2)NC(=O)[C@H](Cc2ccc(-c3ccccc3)cc2)NC(=O)[C@@H](Cc2cccs2)N1 [Compound 145]	10 to 30
O=C1COc2ccc(cc2)C[C@@H](C(=O)O)NC(=O)[C@@H](CCc2ccccc2)NC(=O)[C@H](Cc2ccc(C(F)(F)F)cc2)NC(=O)[C@@H](Cc2ccc(C(F)(F)F)cc2)N1 [Compound 146]	10 to 30
O=C1COc2ccc(cc2)C[C@@H](C(=O)O)NC(=O)[C@@H](CCc2ccccc2)NC(=O)[C@H](Cc2ccc(Cl)cc2Cl)NC(=O)[C@@H](Cc2cccs2)N1 [Compound 147]	30 to 100
O=C1COc2ccc(cc2)C[C@@H](C(=O)O)NC(=O)[C@@H](CCc2ccccc2)NC(=O)[C@H](Cc2ccc(Cl)cc2Cl)NC(=O)[C@@H](Cc2ccc(C(F)(F)F)cc2)N1 [Compound 148]	30 to 100
O=C1COc2ccc(cc2)C[C@@H](C(=O)O)NC(=O)[C@@H](CCc2ccccc2)NC(=O)[C@H](Cc2ccc(Cl)cc2Cl)NC(=O)[C@@H](CCc2ccccc2)N1 [Compound 149]	10 to 30
O=C1COc2ccc(cc2)C[C@@H](C(=O)O)NC(=O)[C@@H](CCc2ccccc2)NC(=O)[C@H](Cc2ccc(-c3ccccc3)cc2)NC(=O)[C@@H](Cc2ccc(C(F)(F)F)cc2)N1 [Compound 150]	30 to 100
O=C1COc2ccc(cc2)C[C@@H](C(=O)O)NC(=O)[C@@H](CCc2ccccc2)NC(=O)[C@H](Cc2ccc(C(F)(F)F)cc2)NC(=O)[C@@H](CCc2ccccc2)N1 [Compound 151]	30 to 100
O=C1CCC(=O)N[C@H](Cc2ccccc2)C(=O)N[C@@H](Cc2ccc(Br)cc2)C(=O)N[C@H](Cc2ccco2)C(=O)N[C@@H](C(=O)O)Cc2ccc(cc2)N1 [Compound 153] ([dF][Phe(4-Br)][dAla(2-furyl)][dPhe(4-NH2)]-OH; linker N-4 via Suc)	> 100
CC(=O)O[C@H]1C(=O)Nc2ccc(cc2)C[C@H](C(=O)O)NC(=O)[C@@H](Cc2ccco2)NC(=O)[C@H](Cc2ccc(Br)cc2)NC(=O)[C@@H](Cc2cccs2)NC(=O)[C@@H]1OC(C)=O [Compound 154] ([d2Thi][Phe(4-Br)][dAla(2-furyl)][dPhe(4-NH2)]-OH; linker N-4 via Tartaroyl(2R,3R-(OAc)2))	> 100
O=C1N[C@H](Cc2ccco2)C(=O)N[C@@H](C(=O)O)Cc2ccc(cc2)NC(=O)[C@H](O)[C@@H](O)C(=O)N[C@H](Cc2cccs2)C(=O)N[C@H]1Cc1ccc(Br)cc1 [Compound 155]	> 100
O=C1CCC(=O)N[C@H](Cc2cccs2)C(=O)N[C@@H](Cc2ccc(Br)cc2)C(=O)N[C@H](Cc2ccco2)C(=O)N[C@@H](C(=O)O)Cc2ccc(cc2)N1 [Compound 159] ([d2Thi][Phe(4-Br)][dAla(2-furyl)][dPhe(4-NH2)]-OH; linker N-4 via Suc)	10 to 30
CC(=O)O[C@H]1C(=O)Nc2ccc(cc2)C[C@H](C(=O)O)NC(=O)[C@@H](Cc2ccco2)NC(=O)[C@H](Cc2ccc(Br)cc2)NC(=O)[C@@H](Cc2ccccc2)NC(=O)[C@@H]1OC(C)=O [Compound 160] ([dF][Phe(4-Br)][dAla(2-furyl)][dPhe(4-NH2)]-OH; linker N-4 via Tartaroyl(2R,3R-(OAc)2))	30 to 100
